Test results taken from patent publication US5010059A, “Pharmaceutical products and lactosyl compounds” (Solco Basel AG, priority 1987, dated 1991).
“And” between values parts separate entries of the source, which are not always exact repeats. Equal values may be shown once. Read-outs that look alike come from different tables or passages of the source.

Key:
GalN/endotoxin hepatitis [1] = settings: *p ≤ 0.01, **p ≤ 0.001; indomethacin 9 mg/kg; diethylcarbamazine 78 mg/kg i.p. every 45 minutes between 0 and 6 hours; dexamethasone 200 μg/kg i.p.; cited from earlier work
GalN/endotoxin hepatitis [2] = experiment: GalN/endotoxin hepatitis, cytoprotective effect of the compounds; assay type: in vivo, albino mice of the NMRI strain; settings: 200 μg/kg i.p. 1 hour before GalN/endotoxin; serum 9 hours later; n.s. not significant, *p ≤ 0.05, **p ≤ 0.01
Description: In order to gain a deeper insight into the pharmacological properties of the compounds of the formula I, they have been examined for any cytoprotective effects they may have. The cytoprotective effect can be shown, inter alia, by the method described by A. Wendel and G. Tiegs in Biochemical Pharmacology 35 (1986), 2115-2118. This is based on the impairment of liver function as a consequence of sensitization of the liver due to administration of D-galactosamine and simultaneous treatment with endotoxins.
D-galactosamine (abbreviated to GalN) causes in animals liver damage which is regarded as a model for human viral hepatitis. The mechanism is assumed to be an accumulation of toxic galactosamine derivatives in the liver, which results in a diminution in the biosynthesis of macromolecules such as ribonucleic acids, proteins, glycoproteins and glycogens. These changes in the metabolism may in turn result in cell damage or even death of cells in the liver. The extent of liver damage can be determined by the increase in certain liver enzymes (sorbitol dehydrogenase SDH, serum glutamic-oxalic transaminase SGOT, serum glutamic-pyruvic transaminase SGPT) in the blood and by histology of the liver.
The test is carried out as follows.
Male albino mice of the NMRI strain are pretreated intraperitoneally with 200 μg/kg test substance and, 1 hour thereafter, treated intraperitoneally with 700 mg/kg D-galactosamine and 33 μg/kg endotoxins. 9 hours later, blood is removed by cardiac puncture, and the enzymatic activity in the blood serum is determined according to H. U. Bergmeyer [Methods in Enzymatic Analysis, 3rd edition (1985), volume III]. In this experimental model, the […] (Kupffer cells) actually function as immobilized macrophages.
The content of the liver enzymes SDH, SGOT and SGPT in the serum is expressed in international units (IU) for the enzyme activity; 1 IU=1 μmol of substrate converted/minute in one liter.

cutaneous necrosis = experiment: skin flap test (action promoting healing); assay type: in vivo, Wistar rats; settings: for Area of surviving skin in mm^2 / Area of the necrotic skin in mm^2 / Area of the skin flap / Area of surviving skin in % / Area of the necrotic skin in %: 1.5 ml i.p. daily for 8 days; for Area of surviving skin in mm^2 / Area of the necrotic skin in mm^2 / Area of the skin flap: 5% concentration; for Area of surviving skin in % / Area of the necrotic skin in %: % of skin flap; for Action of the compound in %: increase in area of surviving skin as percentage compared with control
Description: Various pharmacological tests can be used to test for any therapeutically beneficial effect on damaged cells and tissues. An action promoting healing can be estimated and measured, in particular, by using the so-called skin flap test; the test is based on the development of a cutaneous necrosis and the inhibition thereof as a consequence of the action of the test substance.
Male Wistar rats of body weight 220-240 g in groups of 8 animals for each value which is to be determined are anesthetized with Nembutal (50 mg/kg, i.p.). A 1×3 cm skin flap is cut out, using a scalpel, from the back, is thoroughly washed and is returned to the original site and is sutured. The test animals are given the compound which is to be tested, in 5% concentration in aqueous solution (containing 0.2% ethanol and 1% polyethylene glycol of molecular weight 20,000--or Carbowax ®20; in each case 1.5 ml intraperitoneal), each day for 8 days; the control animals receive only the aqueous medium. Each day drawings are made of the skin flaps on the scale 1:1, with the necrotic sites being colored black. The animals are sacrificed after 8 days, and the drawings are evaluated using a Biotran apparatus, and the total area of the necrotic sites is measured in mm^2. The action promoting healing is expressed as the increase in the area of surviving skin as a percentage compared with the control.

acute toxicity testing = assay type: in vivo; design: Weight on May 10, 1988 / Weight on May 20, 1988: unit not given here
Description: Two groups each of ten mice were observed and weighed each day for 10 days. The animals in the control group each received intraperitoneal administration of 500 μl of a 5 mmol/l solution of Pluronic ® F 68 (manufactured by BASF Wyandotte, Erbsloh/FRG) in physiological saline, while those in the test group received 500 μl of a solution of 6 mg of the compound named above in 6 ml of Pluronic® F 68.

| Compound | SGOT (GalN/endotoxin hepatitis [1]) | SGPT (GalN/endotoxin hepatitis [1]) | SDH (GalN/endotoxin hepatitis [2]) [IU/liter] | SGOT (GalN/endotoxin hepatitis [2]) [IU/liter] | SGPT (GalN/endotoxin hepatitis [2]) [IU/liter] | Area of surviving skin in mm^2 (cutaneous necrosis) [mm^2] | Area of the necrotic skin in mm^2 (cutaneous necrosis) [mm^2] | Area of the skin flap (cutaneous necrosis) [mm^2] | Area of surviving skin in % (cutaneous necrosis) [%] | Area of the necrotic skin in % (cutaneous necrosis) [%] | Action of the compound in % (cutaneous necrosis) | special reactions immediately after the injection (acute toxicity testing; about 20 mg/kg i.p.) | toxic signs (acute toxicity testing; about 20 mg/kg i.p., during the experiment and days which followed) | weight gain versus control group (acute toxicity testing; about 20 mg/kg i.p., test versus control group) | mortality (acute toxicity testing; mouse, in vivo) | Weight on May 20, 1988 (acute toxicity testing; test group, individual animals, 10 days, about 20 mg/kg i.p.) | Weight difference (acute toxicity testing; test group, individual animals, May 10 to May 20, about 20 mg/kg i.p.) | Weight on May 10, 1988 (acute toxicity testing; test group, individual animals, before/at i.p. dosing (about 20 mg/kg)) |
| --- | --- | --- | --- | --- | --- | --- | --- | --- | --- | --- | --- | --- | --- | --- | --- | --- | --- | --- |
| C[C@@H]1C[C@H]2[C@@H]3CCC4=CC(=O)C=C[C@]4(C)[C@@]3(F)[C@@H](O)C[C@]2(C)[C@@]1(O)C(=O)CO [Dexamethasone] | 140 ± 100 | 100 ± 60 | – | – | – | – | – | – | – | – | – | – | – | – | – | – | – | – |
| CCN(CC)C(=O)N1CCN(C)CC1 [Diethylcarbamazine] | 270 ± 90 | 290 ± 180 | – | – | – | – | – | – | – | – | – | – | – | – | – | – | – | – |
| CCCCCCCCCCCCCC=CC(O)C(COC1OC(CO)C(O)C(O)C1O)NC(=O)CCCCCCCCCCCCCCC [Gal(Pal)-D-Sph] | – | – | 2400 ± 2800 | 1030 ± 1150 | 2990 ± 3510 | 191.8 ± 18.9 | 81.4 ± 18.5 | 273.3 ± 5.2 | 70.2 | 29.8 | +31.2% | – | – | – | – | – | – | – |
| CC/C=C\C/C=C\C/C=C\CCCCCCCC(=O)N[C@@H](CO[C@@H]1O[C@H](CO)[C@@H](O)[C@H](O)[C@H]1O)[C@H](O)/C=C/CCCCCCCCCCCCC [Glu(Linolen)-D-Sph] | – | – | 2280 ± 355 | 940 ± 170 | 3350 ± 630 | 107.4 ± 27.3 | 184.1 ± 28.9 | 291.5 ± 5.5 | 37.2 | 62.8 | +144.7% | – | – | – | – | – | – | – |
| CCCCCCCCCCCCC/C=C/[C@@H](O)[C@H](CO[C@@H]1O[C@H](CO)[C@@H](O)[C@H](O)[C@H]1O)NC(=O)CCCCCCCCCCCCCCC [Glu(Pal)-D-Sph] | – | – | 4720 ± 2320 | 910 ± 425 | 3950 ± 2260 | 144.1 ± 9.1 | 113.3 ± 10.6 | 257.4 ± 6.2 | 56.2 | 43.8 | +30.1% | – | – | – | – | – | – | – |
| CCCCCCCCCCCCCC=CC(O)C(COC1OC(CO)C(O)C(O)C1O)NC(=O)CCCCCCCCCCCCCCC [Glu(Pal)-L-Sph] | – | – | 1690 ± 1680 | 410 ± 360 | 1470 ± 1460 | 178.6 ± 16.8 | 85.8 ± 14.7 | 264.4 ± 2.6 | 67.3 | 32.7 | +55.8% | – | – | – | – | – | – | – |
| CCCCC/C=C\C/C=C\C/C=C\C/C=C\CCCC(=O)N[C@@H](CO[C@@H]1O[C@H](CO)[C@@H](O[C@@H]2O[C@H](CO)[C@H](O)[C@H](O)[C@H]2O)[C@H](O)[C@H]1O)[C@H](O)/C=C/CCCCCCCCCCCCC [Lac(Arach)-D-Sph] | – | – | 355 ± 425 | 280 ± 260 | 290 ± 210 | 211.6 ± 33.3 | 111.5 ± 25.8 | 323.1 ± 10.4 | 64.1 | 35.8 | +36.8% | – | – | – | – | – | – | – |
| CC/C=C\C/C=C\C/C=C\CCCCCCCC(=O)N[C@@H](CO[C@@H]1O[C@H](CO)[C@@H](O[C@@H]2O[C@H](CO)[C@H](O)[C@H](O)[C@H]2O)[C@H](O)[C@H]1O)[C@H](O)/C=C/CCCCCCCCCCCCC [Lac(Linolen)-D-Sph, (2S,3R,4E)-1-[4-0-(β-D-Galactopyranosyl)-β-D-glucopyranosyloxy-oxy]-2-[(9Z,12Z,15Z)-9,12,15-octadecatrienoylamino]-4-octadecen-3-ol] | – | – | 290 ± 250 | 124 ± 55 | 230 ± 76 | 195.9 ± 35.5 | 128.1 ± 34.2 | 324.0 ± 10.0 | 60.4 | 39.6 | +22.0% | – | – | – | – | – | – | – |
| CCCCCCCCCCCCC/C=C/[C@@H](O)[C@H](CO[C@@H]1O[C@H](CO)[C@@H](O[C@@H]2O[C@H](CO)[C@H](O)[C@H](O)[C@H]2O)[C@H](O)[C@H]1O)NC(=O)CCCCCCCCCCCCCCC [Lac(Pal)-D-Sph, (2S,3R,4E)-1-[4-0-(8-D-galactopyranosyl) -β-D-glucopyranosyloxy]-2-hexadecanoylamino-4-octadecen-3-ol] | – | – | 80 ± 30 | 80 ± 20 | 110 ± 70 | 197.6 ± 12.6 | 113.2 ± 13.0 | 310.9 ± 6.9 | 63.8 | 36.2 | +47.3% | – | – | – | – | – | – | – |
| CCCCCCCCCCCCC/C=C/[C@H](O)[C@@H](CO[C@@H]1O[C@H](CO)[C@@H](O[C@@H]2O[C@H](CO)[C@H](O)[C@H](O)[C@H]2O)[C@H](O)[C@H]1O)NC(=O)CCCCCCCCCCCCCCC [Lac(Pal)-L-Sph, (2R,3S,4E)-1-[4-0-(8-D-galactopyranosyl) -β-D-gluco-pyranosyloxy]-2-hexadecanoylamino-4-octadecen-3-ol] | – | – | 80 | 120 ± 80 | 80 ± 20 | 182.8 ± 11.3 | 112.7 ± 13.3 | 295.5 ± 6.4 | 62.3 | 37.7 | +43.9% | nor were any special reactions immediately after the injection | no toxic signs | strictly comparable in respect of weight gain | No mortality | 35.7 and 33.0 and 35.0 and 34.9 and 34.4 and 39.9 and 28.8 and 34.0 and 30.5 and 31.9 | +6.6 g and +6.0 g and +7.3 g and +7.0 g and +7.7 g and +9.7 g and +4.3 g and +6.4 g and +3.9 g and +5.6 g | 29.1 and 27.0 and 27.7 and 27.9 and 26.7 and 30.2 and 24.5 and 27.6 and 26.6 and 26.3 |
